Experimental data taken from patent US12398093B2, “Compounds and methods for treating inflammatory disorders” (Board of Supervisors of Louisiana State University and …, priority 2019, dated 2025).

Key:
[1] = test system: adult male Brown Norway rats; test: Ovalbumin allergic asthma model, whole body plethysmography (ΔPenh) after methacholine challenge; assay type: in vivo; conditions: rats, nebulized inhaled drug
Excerpt: (§1) A modification of the ovalbumin model of allergic asthma and whole body plethysmography protocol as described in Nau et al. (Am. J. Physiol. Lung Cell Mol. Physiol. 2015, 308(2): L191-L198; incorporated herein by reference) was used to determine ΔPenh, a measure of airways hyperresponsiveness (AHR), in response to methacholine challenge in adult male Brown Norway rats. Results, shown in FIGS. 2A-2G, represent PenH change measured in the ovalbumin allergic asthma assay in rats, with the exception of FIG. 2C, which was measured in mice, for nebulized inhaled drug. Statistics were performed using 2-way ANOVA with Tukey post hoc test for multiple comparisons.
Allergic asthma is defined as a chronic inflammatory disorder of the airways. This disease is characterized by airway inflammation, persistent airways AHR and intermittent, reversible airways obstruction.
Area under the curve of PenH values (PenH-AUC) in response to incremental doses of metacholine were calculated for each testing groups, naïve, OVA treated, and OVA+DRUG treated animals. A reduction in PenH-AUC values of more than 75% of the control values (OVA alone) was annotated as a strong efficacy. […] Additional to this information are provided the relative to R-DOI EC50 values (ratio) of tested compounds in 5-HT2AR heterologous cell-based calcium transient assay. […] FIG. 3 illustrates the non-correlative nature of the therapeutic efficacy of the phenylethylamines class of compounds against inflammatory-mediated allergen-induced AHR and the reported evidences of the dose necessary for psychoactive disturbances experienced with these compounds in humans or the potency and strength of these compounds to the 5-HT2AR in calcium transients assays.
Inhibition of ΔPenh as a function of 2C-iBu concentration was studied by nebulization nose-only administration of 2C-iBu to male adult Brown Norway rats as described above. Area under the curve for each treatment group at a given dose of 2C-iBu for ΔPenh is plotted on the Y-axis versus concentration of 2C-iBu on the X-axis.

human 5-HT2A receptor = biological target: T1, human 5-HT2A receptor (Homo sapiens, UniProt P28223); test: Gq-mediated calcium transients (calcium mobilization), Fluo-4, HEK cells; assay type: cell-based; conditions: for pEC50 calcium mobilization / EMAX (%) calcium mobilization: Table 4; for EMAX (%) calcium mobilization: percentage of 5-HT response; for Emax: HEK293, read-out: EMAX (%) calcium mobilization
T1 construct: expressed in transfected cells

5-HT2AR-Tango construct = biological target: T2, 5-HT2AR-Tango construct (Homo sapiens, UniProt P28223); test: β-arrestin-2 recruitment, PRESTO-Tango assay in HTLA cells; assay type: cell-based; conditions: for pEC50 beta arrestin recruitment / EMAX (%) beta arrestin recruitment: Table 5; for EMAX (%) beta arrestin recruitment: percentage of 5-HT response
T2 construct: expressed in transfected cells; host or cells: HTLA cells (transient transfection)

mice = test: Ovalbumin allergic asthma assay (PenH), nebulized inhaled drug, mice (FIG. 2C); assay type: in vivo; conditions: 1.0 mg/kg (FIG. 2C)
Excerpt: as §1

T2 sequence (P28223 whole entry, added parts left off): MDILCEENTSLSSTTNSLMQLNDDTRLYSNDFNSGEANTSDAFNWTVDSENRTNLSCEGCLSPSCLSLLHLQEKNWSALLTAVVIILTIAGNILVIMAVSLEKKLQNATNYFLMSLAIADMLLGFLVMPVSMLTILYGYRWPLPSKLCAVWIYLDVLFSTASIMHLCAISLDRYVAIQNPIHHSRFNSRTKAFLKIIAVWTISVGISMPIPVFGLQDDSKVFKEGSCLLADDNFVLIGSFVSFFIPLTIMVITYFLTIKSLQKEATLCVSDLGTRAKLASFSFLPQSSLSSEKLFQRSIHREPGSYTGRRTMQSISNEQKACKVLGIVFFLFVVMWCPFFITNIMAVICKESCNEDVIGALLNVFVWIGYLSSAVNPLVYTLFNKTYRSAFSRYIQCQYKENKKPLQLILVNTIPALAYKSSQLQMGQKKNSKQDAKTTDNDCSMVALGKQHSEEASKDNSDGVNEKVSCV
T2 sequence (P32121 whole entry partner): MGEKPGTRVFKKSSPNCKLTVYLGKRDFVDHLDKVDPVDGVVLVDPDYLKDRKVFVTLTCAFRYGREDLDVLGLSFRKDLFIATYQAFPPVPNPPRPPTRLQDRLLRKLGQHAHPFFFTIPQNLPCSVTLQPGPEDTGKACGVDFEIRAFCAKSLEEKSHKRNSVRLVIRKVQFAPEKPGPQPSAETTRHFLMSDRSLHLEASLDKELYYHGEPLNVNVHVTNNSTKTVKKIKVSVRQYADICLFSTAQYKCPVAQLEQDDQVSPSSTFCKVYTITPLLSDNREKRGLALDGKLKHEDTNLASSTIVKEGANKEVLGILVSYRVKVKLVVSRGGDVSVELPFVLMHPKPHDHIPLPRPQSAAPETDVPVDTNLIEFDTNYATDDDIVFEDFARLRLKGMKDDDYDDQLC
T1 sequence (P28223 whole entry): as the sequence (P28223 whole entry, added parts left off) above

SMILES | pEC50 calcium mobilization (human 5-HT2A receptor) | EMAX (%) calcium mobilization (human 5-HT2A receptor) [%] | EMAX (%) beta arrestin recruitment (5-HT2AR-Tango construct) [%] | further results
Cl.NCCc1c2c(c(Br)c3c1OCC3)OCC2 [2C-B-Fly.HCl] | – | – | – | Prevention of AHR (ΔPenh/PenH) in response to OVA ([1]; 0.5 mg/kg): significant difference from OVA to naive, and from 2C-B-Fly.HCl+OVA to naive
COc1cc(CCN)c(OC)cc1Br [2C-B] | 8.11 | 78.00 | 39.46 | pEC50 beta arrestin recruitment (5-HT2AR-Tango construct): 5.99
COc1ccc(OC)c(CCN)c1 [2C-H] | 6.34 | 69.50 | 10.98 | pEC50 beta arrestin recruitment (5-HT2AR-Tango construct): 7.07
COc1cc(CCN)c(OC)cc1I [2C-I] | 8.14 | 72.80 | – | –
COc1cc(CC(C)(C)C)c(OC)cc1CCN [2C-NP] | – | – | – | EC50 (human 5-HT2A receptor): 155 nM; Emax (human 5-HT2A receptor): 76%
COc1cc(C(C)C)c(OC)cc1CCN [2C-iP] | 7.59 | 52.07 | 3.46 | pEC50 beta arrestin recruitment (5-HT2AR-Tango construct): 7.8
COc1cc(CCNCc2ccccc2OC)c(OC)cc1I [25I-NBOMe] | – | – | – | Prevention of AHR (ΔPenh/PenH) in response to OVA ([1]; 1.0 mg/kg): reduced potency
COc1cc(CC(C)N)c(OC)cc1Br (stereo not drawn) [DOB] | – | – | – | Prevention of AHR (PenH) in response to OVA (mice): did not reduce potency
COc1cc(C(F)(F)F)c(OC)cc1CC(C)N (stereo not drawn) [DOTFM] | – | – | – | Prevention of AHR (ΔPenh/PenH) in response to OVA ([1]; 0.5 mg/kg): significant difference from OVA+DOTFM to naive
COc1cc(CC(C)N)c(OC)cc1CC(C)C (stereo not drawn) [DOiBu] | – | – | – | EC50 (human 5-HT2A receptor): 4.47 nM; Emax (human 5-HT2A receptor): 90.6%; EC50 (5-HT2AR-Tango construct): 5.89 nM; Emax (5-HT2AR-Tango construct; HTLA, read-out: EMAX (%) beta arrestin recruitment): 70.2%
COc1cc(C(C)C)c(OC)cc1CC(C)N (stereo not drawn) [DOiP] | 8.29 | 73.17 | 20.40 | pEC50 beta arrestin recruitment (5-HT2AR-Tango construct): 8.24
COc1ccc(OC)c(C[C@@H](C)N)c1 [R-2,5-DMA] | – | 108.38 | 65.51 | –
COc1cc(C[C@@H](C)N)c(OC)cc1Br [R-DOB] | – | 79.80 | 98.14 | –
COc1cc(Br)c(OC)c2c1[C@H](CN)C2 [TCB-2] | – | – | – | Prevention of AHR (ΔPenh/PenH) in response to OVA ([1]; 0.5 mg/kg): reduced PenH, it was still significantly elevated over naive controls
